Experimental data as given in US10150733B2, “Amidoheteroaryl aroyl hydrazide ethynes” (SUN PHARMA ADVANCED RESEARCH COMPANY LTD., priority 2015, dated 2018).

Legend:
[1] = test system: c-Abl kinase (K562 cells); assay: In-vitro cell proliferation assay (MTT), K562 cells; format: cell-based; conditions: for inhibition at 0.001 µM / inhibition at 0.01 µM / inhibition at 0.1 µM: Homo sapiens
Description: In-vitro Cell Proliferation Assay
K562/U937 cells (2×10^4 per well) were incubated with the test compounds/vehicle in a total volume of 200 μL of media at 37° C. with 5% CO2. On day 4, 20 μL MTT 5 mg/ml was added and the cells were incubated for 4-5 hours followed by addition of 100 μL of 10% SDS prepared in 0.06N HCl. The cells were incubated overnight at 37° C. with 5% CO2. On Day 5 the optical density was measured at 570 nm with 630 nm as reference wavelength. The optical density in the vehicle treated wells was compared with that of the test compound treated wells.

[2] = target: mutated Abl (T315I) (human) (Homo sapiens, UniProt P00519, T315I); assay: Mutated Abl (T315I) (human) kinase assay, 33P-ATP filter binding; format: biochemical; conditions: for inhibition at 0.003 µM: 3 nM; for inhibition at 0.03 µM: 30 nM
Description: Mutated Abl (T315I) (Human)Kinase
In a final reaction volume of 25 μL, mutated Abl (T315I) (human) (5-10 mU) is incubated with 8 mM MOPS pH7.0, 0.2 mM EDTA, […] EAIYAAPFAKKK, 10 mM Mg(OAc)2 and [γ-33P-ATP] [specific activity approx. 500 cpm/pmol, concentration as required]. The reaction is initiated by the addition of the MgATP mix. After incubation for 40 minutes at room temperature, the reaction is stopped by the addition of 5 μL of a 3% phosphoric acid solution. 10 μL of the reaction is then spotted onto a P30 filtermat and washed three times for 5 minutes in 75 mM phosphoric acid and once in methanol prior to drying and scintillation counting.

Row | SMILES | c-Abl kinase (K562 cells); % Inhibition ([1]; 1 nM) [%] | c-Abl kinase (K562 cells); % Inhibition ([1]; 10 nM) [%] | c-Abl kinase (K562 cells); % Inhibition ([1]; 100 nM) [%] | inhibition at 0.001 µM ([1]; 1 nM) [%] | inhibition at 0.01 µM ([1]; 10 nM) [%] | inhibition at 0.1 µM ([1]; 100 nM) [%] | inhibition at 0.003 µM [2] [%] | inhibition at 0.03 µM [2] [%]
1 | Cc1ccc(C(=O)NNC(=O)c2c(C)cccc2Cl)cc1C#Cc1ccc(NC(=O)C(F)(F)F)nc1 [I.10] | 39.8 | 78.5 | 73.3 |  |  |  |  | 
2 | CC(=O)Nc1ccc(C#Cc2cc(C(=O)NNC(=O)c3c(C)cccc3Cl)ccc2C)cn1 [I.6, N-(5-{5-[N′-(2-Chloro-6-methyl-benzoyl)hydrazinocarbonyl]-2-methyl-phenylethynyl}-pyridin-2-yl)acetamide] |  |  |  | 88.4 | 91.6 | 91 | 68 | 89
3 | Cc1cn(-c2cc(C(=O)NNC(=O)c3ccc(C)c(C#Cc4ccc(NC(=O)C5CC5)nc4)c3)cc(C(F)(F)F)c2)cn1 [I.8, Cyclopropanecarboxylic acid [5-(2-methyl-5-{N′-[3-(4-methylimidazol-1-yl)-5-trifluoromethylbenzoyl]-hydrazinocarbonyl}phenylethynyl)pyridin-2-yl]amide] |  |  |  | 68.9 | 84 | 86.1 |  | 
4 | Cc1ccc(C(=O)NNC(=O)c2c(C)cccc2Cl)cc1C#Cc1ccc(NC(=O)CN2CCC(N(C)C)CC2)nc1 [I.4, N-(5-{5-[N′-(2-Chloro-6-methyl-benzoyl)hydrazinocarbonyl]-2-methyl-phenylethynyl}-pyridin-2-yl)-2-(4-dimethylaminopiperidin-1-yl)acetamide] |  |  |  | 76.5 | 81.4 | 86.9 | 70 | 95
5 | Cc1ccc(C(=O)NNC(=O)c2c(C)cccc2Cl)cc1C#Cc1ccc(NC(=O)CN2CCC(N(C)C)C2)nc1 (centres unmarked) [I.5, N-(5-{5-[N′-(2-Chloro-6-methyl-benzoyl)hydrazinocarbonyl]-2-methyl-phenylethynyl}-pyridin-2-yl)-2-(3-dimethylaminopyrrolidin-1-yl)acetamide] |  |  |  | 71.4 | 81.7 | 82.1 | 66 | 96
6 | Cc1ccc(C(=O)NNC(=O)c2c(C)cccc2Cl)cc1C#Cc1ccc(NC(=O)CCN2CCN(C)CC2)nc1 [I.3, N-(5-{5-[N′-(2-Chloro-6-methylbenzoyl)hydrazinocarbonyl]-2-methyl-phenylethynyl}-pyridin-2-yl)-3-(4-methyl-piperazin-1-yl)propionamide] |  |  |  | 75 | 85.5 | 87.9 | 59 | 94
7 | Cc1ccc(C(=O)NNC(=O)c2ccc(CN3CCN(C)CC3)cc2)cc1C#Cc1ccc(NC(=O)C2CC2)nc1 [I.7, Cyclopropanecarboxylic acid [5-(2-methyl-5-{N′-[4-(4-methylpiperazin-1-ylmethyl)benzoyl]-hydrazinocarbonyl}phenylethynyl)pyridin-2-yl]amide] |  |  |  | 24.6 | 78.6 | 85.9 |  | 
8 | Cc1ccc(C(=O)NNC(=O)c2c(C)cccc2Cl)cc1C#Cc1ccc(NC(=O)NC2CC2)nc1 [I.9, 1-(5-{5-[N′-(2-Chloro-6-methyl-benzoyl)-hydrazinocarbonyl]-2-methyl-phenylethynyl}-pyridin-2-yl)-3-cyclopropylurea] |  |  |  | 61 | 83.6 | 87.8 |  | 
9 | CCCC(=O)Nc1ccc(C#Cc2cc(C(=O)NNC(=O)c3c(C)cccc3Cl)ccc2C)cn1 [I.12] | 33.6 | 80.6 |  |  |  |  |  | 
10 | Cc1ccc(C(=O)NNC(=O)c2c(C)cccc2Cl)cc1C#Cc1ccc(NC(=O)C2CC2)nc1 [I.1, cyclopropanecarboxylic acid (5-{5-[N′-(2-chloro-6-methylbenzoyl)hydrazinocarbonyl]-2-methyl-phenylethynyl}-pyridin-2-yl)amide] |  |  |  | 84.7 | 91.1 | 87 | 87 | 98
11 | Cc1ccc(C(=O)NNC(=O)c2c(C)cccc2Cl)cc1C#Cc1ccc(NC(=O)CN(C)C)nc1 [I.2, N-(5-{5-[N′-(2-chloro-6-methylbenzoyl)hydrazinocarbonyl]-2-methyl-phenylethynyl}-pyridin-2-yl)-2-dimethylaminoacetamide] |  |  |  | 71.6 | 82.5 | 82.9 | 50 | 87
12 | Cc1ccc(C(=O)NNC(=O)c2ccc(CN3CCN(C)CC3)c(C(F)(F)F)c2)cc1C#Cc1ccc(NC(=O)C2CC2)nc1 [I.11, Cyclopropanecarboxylic acid [5-(2-methyl-5-{N′-[4-(4-methylpiperazin-1-yl-methyl)-3-trifluoromethylbenzoyl]-hydrazinocarbonyl}phenylethynyl)pyridin-2-yl]amide] |  |  |  | 54 | 58.3 | 57.2 |  | 
